Experiments:
Assay type in all cases: cell-based
[1] = system: CHIKV; experiment: CHIKV virus titer reduction (VTR) assay in NHDF cells; settings: Chikungunya virus; for EC90: read-out: CHIKV EC90 (μM); for log reduction at 10 µM: read-out: CHIKV VTR (logs)
[2] = system: VEEV (TC-83); experiment: microbe, parasite or virus in culture; settings: Venezuelan equine encephalitis virus, read-out: VEEV EC50 (μM)
[3] = system: VEEV; experiment: microbe, parasite or virus in culture; settings: Venezuelan equine encephalitis virus, NHDF; for EC90: read-out: VEEV EC90 (μM); for log reduction at 10 µM: read-out: VEEV VTR (logs)
[4] = system: CHIKV; experiment: microbe, parasite or virus in culture; settings: Chikungunya virus, read-out: CHIK EC50 (μM)
[5] = in vitro; settings: human

Row | SMILES | EC90 [1] [µM] | log reduction at 10 µM [1] | EC50 [2] [µM] | EC90 [3] [µM] | log reduction at 10 µM [3] | EC50 [4] [µM] | CC50 [5] [nM]
1 | O=C(Nc1cccc(C#Cc2ncccn2)c1)C12CC3CC(CC(C3)C1)C2 [Compound 11, N-[3-(2-pyrimidin-2-ylethynyl)phenyl]adamantane-1-carboxamide] | 20.3 | 0.3 | > 40 | 20.1 | 1.02 | > 40 | > 40000
2 | O=C(Nc1ccc2c(c1)CCCCC2)c1cccc(C#Cc2ncccn2)c1 [Compound 8, 3-(2-pyrimidin-2-ylethynyl)-N-(6,7,8,9-tetrahydro-5H-benzo[7]annulen-3-yl)benzamide] | 0.43 | 6.89 | > 40 | 2.43 | 7.97 | 0.71 | 6970
3 | O=C1CC(Cc2ccc(NC(=O)c3cccc(C#Cc4ncccn4)c3)cc2)C(=O)N1 (stereo not shown) [Compound 13, N-[4-[(2,5-dioxopyrrolidin-3-yl)methyl]phenyl]-3-(2-pyrimidin-2-ylethynyl)benzamide] | 0.16 | 2.76 | 7.19 | 2.53 | 2.45 | 2.8 | > 40000
4 | O=C(Nc1cccc(C#Cc2ncccn2)c1)c1cc(C2CC2)[nH]c(=O)c1 [Compound 18, 2-cyclopropyl-6-oxo-N-[3-(2-pyrimidin-2-ylethynyl)phenyl]-1H-pyridine-4-carboxamide] | – | 0.62 | 10.3 | 5.66 | 2.43 | 28.1 | > 40000
5 | CCOP(=O)(OCC)c1ccc(NC(=O)c2cccc(C#Cc3ncccn3)c2)cc1 [Compound 6, N-(4-diethoxyphosphorylphenyl)-3-(2-pyrimidin-2-ylethynyl)benzamide] | – | – | 0.43 | – | – | 0.44 | > 40000
6 | COc1cc(C#Cc2ncccn2)cc(C(=O)Nc2ccc3c(c2)CCC(=O)N3C)c1 [Compound 15, 3-methoxy-N-(1-methyl-2-oxo-3,4-dihydroquinolin-6-yl)-5-(2-pyrimidin-2-ylethynyl)benzamide] | – | – | 0.33 | – | – | 0.2 | 26000
7 | O=C(Nc1cccc(C#Cc2ncccn2)c1)c1ccc(N2CCCCC2=O)cc1 [Compound 21, 4-(2-oxo-1-piperidyl)-N-[3-(2-pyrimidin-2-ylethynyl)phenyl]benzamide] | – | 1.83 | 32.2 | – | 0.72 | > 40 | > 40000
8 | O=C1CCc2cc(NC(=O)c3cc(C#Cc4ncccn4)cc(OC(F)(F)F)c3)ccc2N1 [Compound 16, N-(2-oxo-3,4-dihydro-1H-quinolin-6-yl)-3-(2-pyrimidin-2-ylethynyl)-5-(trifluoromethoxy)benzamide] | – | – | 0.16 | – | – | 0.19 | > 40000
9 | O=C1CCc2cc(NC(=O)c3cccc(C#Cc4ncccn4)c3)ccc2N1 [Compound 1, N-(2-oxo-3,4-dihydro-1H-quinolin-6-yl)-3-(2-pyrimidin-2-ylethynyl)benzamide] | 0.18 | 3.15 | 1.6 | 0.11 | 7.85 | 0.23 | > 40000
10 | O=C(NCc1ccc2c(c1)OC(F)(F)O2)c1cccc(C#Cc2ncccn2)c1 [Compound 7, N-[(2,2-difluoro-1,3-benzodioxol-5-yl)methyl]-3-(2-pyrimidin-2-ylethynyl)benzamide] | – | 4.43 | > 40 | – | 3.88 | 4.32 | > 40000
11 | O=C(Nc1ccc(C(F)(F)F)cc1)c1cccc(C#Cc2ncccn2)c1 [Compound 23, 3-(2-pyrimidin-2-ylethynyl)-N-[4-(trifluoromethyl)phenyl]benzamide] | 0.85 | – | 0.71 | 0.82 | – | 1.2 | > 40000
12 | CC(C)(C#N)c1ccc(NC(=O)c2cccc(C#Cc3ncccn3)c2)cc1 [Compound 20, N-[4-(1-cyano-1-methyl-ethyl)phenyl]-3-(2-pyrimidin-2-ylethynyl)benzamide] | 0.07 | 10 | 0.34 | 0.06 | 8.08 | 0.27 | 17800
13 | O=C(Nc1cccc(C#Cc2ncccn2)c1)c1nc2c(s1)CCCC2 [Compound 9, N-[3-(2-pyrimidin-2-ylethynyl)phenyl]-4,5,6,7-tetrahydro-1,3-benzothiazole-2-carboxamide] | 3.9 | 1.65 | > 40 | 7.37 | 2.59 | 5.78 | 9590
14 | O=C1CCc2ccc(NC(=O)c3cccc(C#Cc4ncccn4)c3)cc2N1 [Compound 17, N-(2-oxo-3,4-dihydro-1H-quinolin-7-yl)-3-(2-pyrimidin-2-ylethynyl)benzamide] | 0.61 | 6.94 | 2.18 | 0.45 | 6.81 | 0.83 | > 40000
15 | O=C1CCc2cc(C(=O)Nc3cccc(C#Cc4ncccn4)c3)ccc2N1 [Compound 5, 2-oxo-N-[3-(2-pyrimidin-2-ylethynyl)phenyl]-3,4-dihydro-1H-quinoline-6-carboxamide] | 1.09 | 2.72 | 3.98 | 1.15 | 6.43 | 3.31 | > 40000
16 | O=C(Nc1ccc2c(c1)CCCC2)c1cccc(C#Cc2ncccn2)c1 [Compound 22, 3-(2-pyrimidin-2-ylethynyl)-N-tetralin-6-yl-benzamide] | 0.7 | – | 1.26 | 0.7 | – | 0.83 | > 40000
17 | CC(C)(C)c1ccc(NC(=O)c2cccc(C#Cc3ncccn3)c2)cc1 [Compound 19, N-(4-tert-butylphenyl)-3-(2-pyrimidin-2-ylethynyl)benzamide] | 0.2 | 7.59 | 0.93 | 0.3 | 8.26 | 1.04 | 5080
18 | COc1cc(C#Cc2ncccn2)cc(C(=O)Nc2ccc3c(c2)CCC(=O)N3)c1 [Compound 14, 3-methoxy-N-(2-oxo-3,4-dihydro-1H-quinolin-6-yl)-5-(2-pyrimidin-2-ylethynyl)benzamide] | – | – | 0.44 | – | – | 0.16 | > 40000
19 | CN1C(=O)CCc2cc(NC(=O)c3cccc(C#Cc4ncccn4)c3)ccc21 [Compound 3, N-(1-methyl-2-oxo-3,4-dihydroquinolin-6-yl)-3-(2-pyrimidin-2-ylethynyl)benzamide] | 0.13 | 8 | 0.77 | 0.33 | 8.58 | 0.3 | 35300
20 | O=C1CCc2cc(S(=O)(=O)Nc3cccc(C#Cc4ncccn4)c3)ccc2N1 [Compound 10, 2-oxo-N-[3-(2-pyrimidin-2-ylethynyl)phenyl]-3,4-dihydro-1H-quinoline-6-sulfonamide] | 1.13 | 0.08 | > 40 | – | 0.81 | > 40 | 33200
21 | O=C(Nc1ccc2c(c1)CCCN2)c1cccc(C#Cc2ncccn2)c1 [Compound 12, 3-(2-pyrimidin-2-ylethynyl)-N-(1,2,3,4-tetrahydroquinolin-6-yl)benzamide] | 0.74 | 7.58 | 1.39 | 0.72 | 5.47 | 1.02 | 38800
22 | O=C1CCCc2cc(NC(=O)c3cccc(C#Cc4ncccn4)c3)ccc2N1 [Compound 2, N-(2-oxo-1,3,4,5-tetrahydro-1-benzazepin-7-yl)-3-(2-pyrimidin-2-ylethynyl)benzamide] | 0.15 | 7.7 | 2.27 | 0.55 | 7.77 | 0.51 | > 40000
23 | O=C(Nc1ccc(N2CCCCC2=O)cc1)c1cccc(C#Cc2ncccn2)c1 [Compound 24, N-[4-(2-oxo-1-piperidyl)phenyl]-3-(2-pyrimidin-2-ylethynyl)benzamide] | 0.63 | 4.18 | – | 2.44 | 4.6 | – | –
24 | O=C1Cc2cc(NC(=O)c3cccc(C#Cc4ncccn4)c3)ccc2N1 [Compound 4, N-(2-oxoindolin-5-yl)-3-(2-pyrimidin-2-ylethynyl)benzamide] | 0.095 | 10 | 2.11 | 0.32 | 3.19 | 0.66 | > 40000
